The values that follow come from patent publication US12378249B2, “Isoquinoline compounds and uses thereof” (Genentech, Inc., priority 2018, dated 2025).

The Ki is the dissociation constant of the complex between target and ligand, obtained from inhibition or displacement.

Sequence of HPK1 (Q92918 whole entry T165E/S171E): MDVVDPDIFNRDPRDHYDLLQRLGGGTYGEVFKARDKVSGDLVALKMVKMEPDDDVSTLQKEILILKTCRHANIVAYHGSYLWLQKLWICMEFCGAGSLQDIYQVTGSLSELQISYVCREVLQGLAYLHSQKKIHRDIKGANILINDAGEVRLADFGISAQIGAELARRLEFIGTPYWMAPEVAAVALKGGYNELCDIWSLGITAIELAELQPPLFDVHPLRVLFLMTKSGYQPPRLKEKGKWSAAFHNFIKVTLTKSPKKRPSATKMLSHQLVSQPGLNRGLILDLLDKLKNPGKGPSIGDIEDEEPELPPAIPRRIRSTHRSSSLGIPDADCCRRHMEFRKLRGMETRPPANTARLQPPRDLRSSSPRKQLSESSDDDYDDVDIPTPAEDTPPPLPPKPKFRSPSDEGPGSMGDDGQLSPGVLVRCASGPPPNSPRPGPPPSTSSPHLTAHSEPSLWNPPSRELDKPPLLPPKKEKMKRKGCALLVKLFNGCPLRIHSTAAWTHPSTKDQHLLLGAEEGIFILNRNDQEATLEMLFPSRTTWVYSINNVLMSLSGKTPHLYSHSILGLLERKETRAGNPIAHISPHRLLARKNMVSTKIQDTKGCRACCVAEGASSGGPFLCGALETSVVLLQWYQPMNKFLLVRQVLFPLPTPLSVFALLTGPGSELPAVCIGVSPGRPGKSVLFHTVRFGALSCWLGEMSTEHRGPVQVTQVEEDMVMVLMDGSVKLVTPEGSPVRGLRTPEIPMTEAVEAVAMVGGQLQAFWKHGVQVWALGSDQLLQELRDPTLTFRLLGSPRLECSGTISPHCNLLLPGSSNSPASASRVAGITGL

In the assay the target is HPK1 (Homo sapiens (Human), UniProt Q92918, S171E/T165E). Nature of the assay: HPK1-FL HTRF Enzymatic Assay (HTRF). In kind it is biochemical. To be noted: HPK full length T165E S171E 0.125 nM, ATP 1 mM, Biotin-SLP76 100 nM, read-out: HPK1 Ki (nM), H = HTRF. On the procedure:
Exemplary compounds of Formula (I) were tested to assess compound inhibition of HPK-1. The Ki for each exemplary compound was determined
Example B1: HPK1-FL HTRF Enzymatic Assay (“HTRF”)
HPK-FL enzyme phosphorylates Biotin-SLP-76 substrate in the presence of ATP at 1 mM and varying concentrations of test compound. Product is detected by FRET using Eu-anti-pSLP76 Ab and SA-XL665. Also see www.cisbio.com/HTRF for additional HTRF technology information.
• Echo555 compound dispenser • Agilent Bravo • Perkin Elmer Envision Final Assay Conditions:
Materials: • Assay plate: White ProxiPlate 384 F (PerkinElmer cat #6008289) • Kinase: HPK full length double mutant • Substrate: Biotin-SLP76 • ATP: 100 mM ATP • BSG: 2% BSG • DMSO: DMSO (Sigma cat #34869-100ML) • Reaction Buffer: H2O/50 mM HEPES, pH 7.5/10 mM MgCl2/2 mM TCEP/0.01% Brij-35/0.01% BSG • Detection mix:Eu-anti-pSLP76/SA-XL665 (Cisbio, #610SAXAC) Assay Procedure Ki determination:
To a 384 well Proxiplate with 80 nL compound or DMSO spotted on was added 4 μl/well kinase mix. The mixture was preincubated for 30 minutes and then 4 μl/well substrate mix was added. The solution was incubated for 60 min and then 4 μl/well detection mix was added. The solution was incubated for another 60 min. The plates were then loaded onto a Perkin Elmer Envision and the TR-FRET signal was measured at 615 and 665 nm. A ratio of […] was used to calculate the % activity at each concentration of compound.
In general terms: TR-FRET usually uses a lanthanide donor and a delayed reading to cut background.
For the molecule `Cc1c(-c2cc3cc(Nc4cc5n(n4)CS(=O)(=O)N(C)C5)ncc3cc2F)cnc2c1NCC[C@@H]2O` (single isomer, unassigned) [Compound 242a], the Ki turned out to be 0.457 nM.
As to `Cc1c(-c2cc3cc(Nc4cc5n(n4)CS(=O)(=O)N(C)C5)ncc3cc2F)cnc2c1NCC[C@H]2O` (single isomer, unassigned) [Compound 242b], the inhibitory constant (Ki) came out at 1.7 nM.
Regarding `Cc1c(-c2cc3cc(Nc4cc5n(n4)Cc4nccn4CC5)ncc3cc2F)cnc2c1NCC[C@@H]2O` (single isomer, unassigned) [Compound 243a], the inhibition constant Ki was found to be 0.013 nM.
Under `Cc1c(-c2cc3cc(Nc4cc5n(n4)Cc4nccn4CC5)ncc3cc2F)cnc2c1NCC[C@H]2O` (single isomer, unassigned) [Compound 243b] stands 0.02 nM; under `Cc1ccncc1-c1cc2cc(Nc3cc4n(n3)CC(=O)N(C)CC4)ncc2c(Cl)c1F` [Compound 110, 2-[[8-Chloro-7-fluoro-6-(4-methylpyridin-3-yl)isoquinolin-3-yl]amino]-6-methyl-4H,5H,6H,7H,8H-pyrazolo[1,5-d][1,4]diazepin-7-one], 4.6 nM; under `Cc1c(N)cncc1-c1cc2cc(Nc3cc4n(n3)CC(=O)N(C)CC43CC3)ncc2cc1F` [Compound 111, 2-[[6-(5-amino-4-methyl-3-pyridyl)-7-fluoro-3-isoquinolyl]amino]-6-methyl-spiro[5,8-dihydropyrazolo[1,5-d][1,4]diazepine-4,1′-cyclopropane]-7-one], 0.01 nM.
Under `Cc1c(N)cncc1-c1cc2cc(Nc3cc4n(n3)CS(=O)(=O)N(C)CC4C)ncc2cc1F` (centres unmarked) [Compound 113, 2-((6-(5-amino-4-methylpyridin-3-yl)-7-fluoroisoquinolin-3-yl)amino)-4,6-dimethyl-5,6-dihydro-4H,8H-pyrazolo[5,1-e][1,2,6]thiadiazepine 7,7-dioxide] stands 1.2 nM; under `Cc1ccncc1-c1cc2cc(Nc3cn4c(n3)CC(=O)N(C)CC4)ncc2c(Cl)c1F` [Compound 114, 2-((8-chloro-7-fluoro-6-(4-methylpyridin-3-yl)isoquinolin-3-yl)amino)-7-methyl-6,7-dihydro-5H-imidazo[1,2-d][1,4]diazepin-8(9H)-one], 75 nM.
Under `Cc1c(-c2cc3cc(Nc4cc5n(n4)CC(=O)N(C(C)C)CC5)ncc3c(Cl)c2F)cnc2c1NCCO2` [Compound 115, 2-((8-chloro-7-fluoro-6-(8-methyl-2,3-dihydro-1H-pyrido[2,3-b][1,4]oxazin-7-yl)isoquinolin-3-yl)amino)-6-isopropyl-5,6-dihydro-4H-pyrazolo[1,5-d][1,4]diazepin-7(8H)-one] stands 0.2 nM; under `Cc1c(-c2cc3cc(Nc4cc5n(n4)CC(=O)N(C(C)C)CC5)ncc3cc2F)cnc2c1NCCO2` [Compound 116, 2-((7-fluoro-6-(8-methyl-2,3-dihydro-1H-pyrido[2,3-b][1,4]oxazin-7-yl)isoquinolin-3-yl)amino)-6-isopropyl-5,6-dihydro-4H-pyrazolo[1,5-d][1,4]diazepin-7(8H)-one], 0.014 nM; under `Cc1c(N)cncc1-c1cc(Cl)c2cnc(Nc3cc4n(n3)CC(=O)N(C(C)C)CC4)cc2c1` [Compound 117, 2-((6-(5-amino-4-methylpyridin-3-yl)-8-chloroisoquinolin-3-yl)amino)-6-isopropyl-5,6-dihydro-4H-pyrazolo[1,5-d][1,4]diazepin-7(8H)-one], 0.64 nM.
With `Cc1c(N)cncc1-c1cc2cc(Nc3cc4n(n3)CC(=O)N(C)C(C)(C)C4)ncc2cc1F` [Compound 120, 2-((6-(5-amino-4-methylpyridin-3-yl)-7-fluoroisoquinolin-3-yl)amino)-5,5,6-trimethyl-5,6-dihydro-4H-pyrazolo[1,5-d][1,4]diazepin-7(8H)-one], the Ki was found to be 0.04 nM.
Under `Cc1c(N)cncc1-c1cc2cc(Nc3cc4n(n3)CC(=O)N(C(C)C)CC4)ncc2c(C)c1F` [Compound 121, 2-((6-(5-amino-4-methylpyridin-3-yl)-7-fluoro-8-methylisoquinolin-3-yl)amino)-6-isopropyl-5,6-dihydro-4H-pyrazolo[1,5-d][1,4]diazepin-7(8H)-one] stands 0.08 nM; under `Cc1ccncc1-c1ccc2cnc(Nc3cc4n(n3)CC(=O)N(C(C)C)CC4)cc2c1` [Compound 122, 6-isopropyl-2-[[6-(4-methyl-3-pyridyl)-3-isoquinolyl]amino]-5,8-dihydro-4H-pyrazolo[1,5-d][1,4]diazepin-7-one], 1 nM; under `Cc1c(-c2cc3cc(Nc4cc5n(n4)CC(=O)N(C(C)C)CC5)ncc3cc2F)cnc2c1NC(=O)CO2` [Compound 123, 7-[7-fluoro-3-[(6-isopropyl-7-oxo-5,8-dihydro-4H-pyrazolo[1,5-d][1,4]diazepin-2-yl)amino]-6-isoquinolyl]-8-methyl-1H-pyrido[2,3-b][1,4]oxazin-2-one], 0.11 nM.
Under `CC(C)N1CCc2cc(Nc3cc4cc(C(=O)N5CCN(C)CC5)c(F)cc4cn3)nn2CC1=O` [Compound 124, 2-((7-fluoro-6-(4-methylpiperazine-1-carbonyl)isoquinolin-3-yl)amino)-6-isopropyl-5,6-dihydro-4H-pyrazolo[1,5-d][1,4]diazepin-7(8H)-one] stands 63 nM; under `Cc1c(N)cncc1-c1cc2cc(Nc3cc4n(n3)Cc3nccn3CC4)ncc2cc1F` [Compound 125, N-(6-(5-amino-4-methylpyridin-3-yl)-7-fluoroisoquinolin-3-yl)-5,6-dihydro-11H-imidazo[1,2-a]pyrazolo[1,5-d][1,4]diazepin-8-amine], 0.03 nM; under `Cc1ncc(-c2cc3cc(Nc4cc5n(n4)CC(=O)N(C(C)C)CC5)ncc3cc2F)c(C)c1N` [Compound 126, 2-((6-(5-amino-4,6-dimethylpyridin-3-yl)-7-fluoroisoquinolin-3-yl)amino)-6-isopropyl-5,6-dihydro-4H-pyrazolo[1,5-d][1,4]diazepin-7(8H)-one], 0.148 nM.
Under `Cc1c(N)cncc1-c1cc2cc(Nc3cc4n(n3)CC(=O)N(C)CC4(F)F)ncc2cc1F` [Compound 127, 2-[[6-(5-amino-4-methyl-3-pyridyl)-7-fluoro-3-isoquinolyl]amino]-4,4-difluoro-6-methyl-5,8-dihydropyrazolo[1,5-d][1,4]diazepin-7-one] stands 0.04 nM; under `Cc1c(N)cncc1-c1ccc2cnc(Nc3cc4n(n3)CC(=O)N(C(C)C)CC4)cc2c1` [Compound 129, 2-[[6-(5-amino-4-methyl-3-pyridyl)-3-isoquinolyl]amino]-6-isopropyl-5,8-dihydro-4H-pyrazolo[1,5-d][1,4]diazepin-7-one], 0.04 nM.
As for `Cc1ccncc1-c1cc2cc(Nc3cc4n(n3)CC(=O)N(C(C)C)CC4)ncc2cc1F` [Compound 131, 2-[[7-fluoro-6-(4-methyl-3-pyridyl)-3-isoquinolyl]amino]-6-isopropyl-5,8-dihydro-4H-pyrazolo[1,5-d][1,4]diazepin-7-one], the inhibition constant Ki was determined as 2.5 nM.
Under `Cc1c(-c2cc3cc(Nc4cc5n(n4)CC(=O)N(CCN4CCOCC4)CC5)ncc3cc2F)cnc2c1NCCO2` [Compound 132, 2-[[7-fluoro-6-(8-methyl-2,3-dihydro-1H-pyrido[2,3-b][1,4]oxazin-7-yl)-3-isoquinolyl]amino]-6-(2-morpholinoethyl)-5,8-dihydro-4H-pyrazolo[1,5-d][1,4]diazepin-7-one] stands 0.02 nM; under `Cc1ncc(-c2cc3cc(Nc4cc5n(n4)CC(=O)N(C(C)C)CC5)ncc3c(O)c2F)c(C)c1N` [Compound 133, 2-((6-(5-amino-4,6-dimethylpyridin-3-yl)-7-fluoro-8-hydroxyisoquinolin-3-yl)amino)-6-isopropyl-5,6-dihydro-4H-pyrazolo[1,5-d][1,4]diazepin-7(8H)-one], 3.7 nM; under `Cc1ccncc1-c1cc2cc(Nc3cc4n(n3)CC3=NOC(C)(C)N3CC4)ncc2cc1F` [Compound 134, N-(7-fluoro-6-(4-methylpyridin-3-yl)isoquinolin-3-yl)-3,3-dimethyl-5,6-dihydro-3H,11H-[1,2,4]oxadiazolo[4,3-a]pyrazolo[1,5-d][1,4]diazepin-8-amine], 3.4 nM.
For `Cc1c(-c2cc3cc(Nc4cc5n(n4)CC(=O)N(C(C)C)CC5)ncc3c(F)c2F)cnc2c1NCCO2` [Compound 135, 2-((7,8-difluoro-6-(8-methyl-2,3-dihydro-1H-pyrido[2,3-b][1,4]oxazin-7-yl)isoquinolin-3-yl)amino)-6-isopropyl-5,6-dihydro-4H-pyrazolo[1,5-d][1,4]diazepin-7(8H)-one] the value was 0.038 nM; for `Cc1c(N)cncc1-c1cc2cc(Nc3cc4n(n3)CC(=O)N(CCN3CCOCC3)CC4)ncc2cc1F` [Compound 136, 2-((6-(5-amino-4-methylpyridin-3-yl)-7-fluoroisoquinolin-3-yl)amino)-6-(2-morpholinoethyl)-5,6-dihydro-4H-pyrazolo[1,5-d][1,4]diazepin-7(8H)-one], 0.028 nM.
